What was measured:
[1] = tested on: peptide-loaded human T2 lymphoma cell targets; experiment: CTL killing of BFA4 peptide-pulsed target cells; type: cell-based; details: single BFA4 peptides, listing = result
[2] = tested on: Human PBMC from an HLA-A2.1 positive donor; experiment: IFN-γ ELISPOT of human T cells activated with BFY3 peptide pools and deconvolution to single peptides; type: cell-based; details: BFY3 nonamer peptides; listing = result
Text: Human PBMC from an HLA-A2.1 positive donor designated AP31 were activated with autologous dendritic cells pulsed with different pools of 9-mer peptides from the BFY3 antigen (see Table I for list). The activated T cells were re-stimulated after 12 days with activated autologous CD40-ligand-activated B cells pulsed with the same respective peptide pools for another 8 to 10 days. This secondary activation was repeated 2 more time for a total of 4 stimulations. The activated T cells were isolated after the 4th stimulation and subjected to ELISPOT analysis for human IFN-γ production against their respective BFY3 peptide pools as shown. The blue bars show reactivity against the BFY3 peptide pools and the red bars are for an HLA-A2.1-binding HIV peptide as a negative control. Standard deviations are indicated. The experiment was repeated 2 times on activated T cells from different rounds of peptide stimulation with the similar results (FIG. 17A).
The BFY3 peptide pools were deconvoluted and studied in IFN-γ ELISPOT assays. Stimulation was performed as described earlier for the other antigens described. After 4 rounds of stimulation, the T cells from each culture were harvested and subjected to ELISPOT analysis for IFN-γ production with each individual peptide in each pool. FIG. 17B illustrates individual peptide reactivity for each specific pool.

[3] = tested on: Non-transfected CosA2 cells; experiment: Zeocin selection of non-transfected cells; type: cell-based; details: for confluency of surviving cells: three weeks
Procedure: A stable transfection study was initiated to obtain stable clones of BFA4 expressing COS A2 cells. These cells are useful for in vitro stimulation assays pcDNA 3.1 zeo^R/BFA4 (2.5 μg and 20 μg), and pcDNA 3.1 zeo^R/BFA4/MycHis tag (2.5 μg) were used to study expression of BFA4). pGL3 Luciferase (2.5 μg) was used as a control vector to monitor transfection efficiency. The Gene porter reagent was used to facilitate transfection of DNA vectors. After 48 h post-transfection, whole cell extract were prepared by scraping cells in the cell lysis reagent (200 μl) and 1 cycle of freeze-thaw at −20° C./37° C. for first experiment. Transfected cells obtained from the second experiment were trypsinized, frozen stock established and cells were plated in increasing concentrations of Zeocin (0, 250, 500, 750 and 1000 μg/ml). Non-transfected CosA2cells survived at 60-80% confluency for three weeks at 100 μg/ml (Zeocin) and 10% confluency at 250 μg/ml (Zeocin).

HLA-A*0201 human T cells = experiment: IFN-γ ELISPOT of human T cells activated with BFA5/NYBR-1 peptide pools and single peptides; type: cell-based; details: for IFN-γ secretion in T cells from both donors: donors AP10 and AP31; for BFA5 peptides eliciting high IFN-γ release (>200 spots/100,000 cells): listing = result
Procedure: A library of 100 peptides from the BFA5/NYBR-1 coding sequence that are predicted to be medium to high binders to HLA-A*0201 were designed using Rammensee and Parker algorithms. The library was sub-divided into 10 pools of ten peptides (see Table XI), and each pool was used to activate 10 different T cell cultures after pulsing peptides on to mature autologous dendritic cells.
ELISPOT analysis was performed on human T-cell cultures activated through four rounds of stimulation with each pool of BFA5 peptides. In FIG. 13A, the numbers under the X-axis indicate the number of each peptide pool (1-10). Reactivity against a CMV pp65 peptide, and a Flu matrix peptide were used as positive controls for T-cell activation in the experiments. Each experiment was performed with PBMC and dendritic cells from a single HLA-A*0201^+ donor designated as “AP10”. […] Similar results were obtained for both BFA4 and BFA5/NYBR-1 with a different HLA-A*0201. […] Cultures having a reading of 600 spots have more than this number of spots.
A large number of the BFA5 peptide pools of are reactive as shown by the high levels of IFN-γ production (FIG. 13A). Each reactive peptide pool was then separated into individual peptides and analyzed for immunogenicity using ELISPOT analysis to isolate single reactive BFA5 peptides. […] Similar results were obtained in two independent PBMC culture experiments.

peptide-loaded T2 cells = experiment: 51Cr-release CTL assay with BFA5 peptide-activated human T cells; type: cell-based; details: donors AP10 and AP31
Procedure: In addition to ELISPOT analysis, human T cells activated by BFA5 peptides were assayed to determine their ability to function as CTL. The cells were activated using peptide-pulsed dendritic cells followed by CD40 ligand-activated B cells (5 rounds of stimulation). The experiment shown was performed with isolated PBMC from HLA-A*0201^+ donor AP31. Isolated T cells were tested in ^51Cr-release assays using peptide-loaded T2 cells. The % specific lysis at a 10:1, 5:1, and 1:1 T-cell to target ratio is shown for T2 cells pulsed with either pools of BFA5/NYBR-1 peptides or with individual peptides. […] CTL activity (percent specific lysis) induced by the control HIV peptide was generally <10%. Similar results were obtained with another PBMC donor expressing HLA-A*0201 (AP10). […]

BFA4 = experiment: Rabbit antibody titers after immunization with BFA4 22-mer peptides; type: in vivo
Text: For monitoring purposes, rabbit anti-BFA4 polyclonal antibodies were generated. Six peptides (22-mers) were designed and synthesized to elicit antibody response to BFA4, as shown below:
Rabbits were immunized with the peptides, serum was isolated, and the following antibody titers were observed: […]

[4] = tested on: targets pulsed with corresponding peptide pools; experiment: CTL killing of targets pulsed with BFY3 peptide pools or peptides; type: cell-based, human; details: for Peptides eliciting CTL activity (peptide pulsed targets): BFY3 nonamer peptides, listing = result; for recognition of single peptides by CTL: BFY3 peptides, peptide-pulsed targets
Procedure: In addition to ELISPOT analysis, human T cells activated by BFY3 peptides were assayed for reactivity. Ten pools of peptides consisting often peptides per pool used to generate CTL. These 10 groups of effectors used to kill targets pulsed with corresponding peptide pools. […]

[5] = first-listed rabbit of the pair
[6] = second-listed rabbit of the pair

## YVPYPTFNL [CLP 2509]
[1]
  Strong CTL Killing (listed as highly immunoreactive peptide): YVPYPTFNL

## HLARPIYGL [CLP 2486]
[1]
  Strong CTL Killing (listed as highly immunoreactive peptide): HLARPIYGL

## NACGLYQKL [CLP 2495]
[1]
  Strong CTL Killing (listed as highly immunoreactive peptide): NACGLYQKL

## NVTLLTSLV [CLP 3380]
[2]
  Peptides eliciting strong IFN-γ ELISPOT activity: NVTLLTSLV

## Cc1c(N)nc([C@H](CC(N)=O)NC[C@H](N)C(N)=O)nc1C(=O)N[C@H](C(=O)N[C@H](C)[C@@H](O)[C@H](C)C(=O)N[C@H](C(=O)NCCC1=N[C@@H](c2nc(C(=O)NCCCCN=C(N)N)cs2)CS1)[C@@H](C)O)[C@@H](O[C@@H]1O[C@@H](CO)[C@@H](O)[C@H](O)[C@@H]1O[C@H]1O[C@H](CO)[C@@H](O)[C@H](OC(N)=O)[C@@H]1O)c1cnc[nH]1 [Zeocin]
[3]; 100 μg/ml
  confluency of surviving cells: 60-80%
[3]; 250 μg/ml
  confluency of surviving cells: 10%
[3]; 500-1000 μg/ml, after three weeks
  live cells: live cells were not observed

## SQYSGQLKV [CLP 3015]
HLA-A*0201 human T cells
  IFN-γ secretion in T cells from both donors: induce
peptide-loaded T2 cells
  CTL activity in T cells from both donors: induce

## SPKATEETGQAQSGQANCQGLS [CLP2590]
BFA4; [5]
  Titer (Bleed 2): 12800
  Titer (Final Bleed): 40000, 40000
BFA4; [6]
  Titer (Bleed 2): 6400
  Titer (Final Bleed): 40000, 40000

## KSQIEPAFH [CLP 3037]
HLA-A*0201 human T cells; Donor AP31
  BFA5 peptides eliciting high IFN-γ release (>200 spots/100,000 cells): KSQEPAFHI

## NMLAFSFPA [CLP 2426]
[1]
  Strong CTL Killing (listed as highly immunoreactive peptide): NMLAFSFPA

## ILIDSGADI [CLP 3005]
HLA-A*0201 human T cells
  IFN-γ secretion in T cells from both donors: induce
peptide-loaded T2 cells
  CTL activity in T cells from both donors: induce

## KAANVTLLT [CLP 3378]
[4]
  Peptides eliciting CTL activity (peptide pulsed targets): KAANVTLLT
  recognition of single peptides by CTL: strongly recognized
[2]
  Peptides eliciting strong IFN-γ ELISPOT activity: KAANVTLLT

## KYKVTVAEV [CLP 3362]
[4]
  Peptides eliciting CTL activity (peptide pulsed targets): KYKVTVAEV
  recognition of single peptides by CTL: Moderately recognized
[2]
  Peptides eliciting strong IFN-γ ELISPOT activity: KYKVTVAEV

## VAKPSEKNSNKSIPALQSSDSG [CLP2591]
BFA4; [5]
  Titer (Bleed 2): 400000, 400000
  Titer (Final Bleed): 320000, 320000
BFA4; [6]
  Titer (Bleed 2): 400000, 400000
  Titer (Final Bleed): 320000, 320000

## LNASLLGGV [CLP 3366]
[2]
  Peptides eliciting strong IFN-γ ELISPOT activity: LNASLLGGV

## KLDKIGLNL [CLP 3372]
[4]
  Peptides eliciting CTL activity (peptide pulsed targets): KLDKIGLNL
  recognition of single peptides by CTL: strongly recognized
[2]
  Peptides eliciting strong IFN-γ ELISPOT activity: KLDKIGLNL

## ALRICDIEL [CLP 3043]
HLA-A*0201 human T cells; Donor AP10
  BFA5 peptides eliciting high IFN-γ release (>200 spots/100,000 cells): ALRIQDIEL

## NHLQGSDGQQSVKESKEHSCTK [CLP2592]
BFA4; [5]
  Titer (Bleed 2): 25600
  Titer (Final Bleed): 80000
BFA4; [6]
  Titer (Bleed 2): 12800
  Titer (Final Bleed): 40000

## ANGASKEKTKAPPNVKNEGPLNV [CLP2594]
BFA4; [5]
  Titer (Bleed 2): 409600, 409600
  Titer (Final Bleed): 320000, 320000
BFA4; [6]
  Titer (Bleed 2): 409600, 409600
  Titer (Final Bleed): 320000, 320000

## YLTEALKAM [CLP 3415]
[2]
  Peptides eliciting strong IFN-γ ELISPOT activity: YLTEALKAM

## LLGGVLRRA [CLP 3369]
[4]
  Peptides eliciting CTL activity (peptide pulsed targets): LLGGVLRRA
  recognition of single peptides by CTL: Moderately recognized
[2]
  Peptides eliciting strong IFN-γ ELISPOT activity: LLGGVLRRA
